Assay results as given in patent US11332472B2, “Substituted piperidines as inhibitors of ubiquitin specific protease 7” (LES LABORATOIRES SERVIER, priority 2017, dated 2022).

Tests used:
[1] = biological target: T1, USP7 (Homo sapiens, UniProt Q93009, C315A); test: Inhibition of USP7 by Fluorescence Intensity (FLINT) readings, Ubiquitin-Rhodamine-110 substrate; type: biochemical; settings: 0.25 nM His-His-USP7 (aa208-560, [C315A]); compound 60 minutes at 30° C.; 500 nM Ubiquitin-Rhodamine substrate; 11-point curves
T1 construct: 0.25 nM His-His-USP7 (aa208-560, [C315A]) was incubated with compound; His-His (N)
How it was run: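 His-His-USP7 (aa208-560, C315A) at 0.25 nM was preincubated with compound for 60 min at 30 °C in 100 mM Bicine pH 8.0, 0.01% Triton X-100, 1 mM TCEP, 10% DMSO. 500 nM ubiquitin-rhodamine-110 was then added, with fluorescence (Ex 485/Em 535 nm) read every 3 min for 21 min. IC50 came from kinetic-rate inhibition, 11-point curves, 4-parameter fit.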

[2] = system: MM 1S multiple myeloma tumour cell line; test: In vitro cytotoxicity, MTT assay, MM1S cells; type: cell-based; settings: Homo sapiens, MM1.S, 96 hours exposure
Protocol: The cytotoxicity studies were evaluated by MTT assay and carried out on MM 1S multiple myeloma or Z138 mantle cell lymphoma tumour cell lines. The cells are distributed onto microplates and exposed to the test compounds for 96 hours. The cell viability is then quantified by a colorimetric assay, the Microculture Tetrazolium Assay (Carmichael et. al., Cancer Res. […], 47, 936-942).

T1 sequence (Q93009 208-560 C315A): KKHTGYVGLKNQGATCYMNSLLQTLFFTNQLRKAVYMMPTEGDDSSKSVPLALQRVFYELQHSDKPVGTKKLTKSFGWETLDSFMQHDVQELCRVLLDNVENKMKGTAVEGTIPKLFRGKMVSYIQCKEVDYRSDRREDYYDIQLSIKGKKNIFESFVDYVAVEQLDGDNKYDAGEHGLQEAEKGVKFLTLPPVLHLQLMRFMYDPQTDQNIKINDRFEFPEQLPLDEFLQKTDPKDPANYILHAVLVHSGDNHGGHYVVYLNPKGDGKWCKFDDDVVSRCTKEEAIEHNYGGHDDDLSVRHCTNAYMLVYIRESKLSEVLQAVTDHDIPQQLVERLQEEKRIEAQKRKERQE

Structure (SMILES)	IC50 [1]	IC50 [2]
COc1ccc(-n2ccc3c(=O)n(CC4(O)CCN(C(=O)[C@@H]5CCCC[C@H]5n5cccc5)CC4)cnc32)cc1 (racemic) [Example 15]	26.1 nM	8.76 nM
O=C([C@@H]1CCCC[C@H]1c1ccccc1)N1CCC(O)(Cn2cnc3c(ccn3-c3ccccc3)c2=O)CC1 (relative stereo) [Example 9, 3-[[4-hydroxy-1-(trans-2-phenylcyclohexanecarbonyl)-4-piperidyl]methyl]-7-phenyl-pyrrolo[2,3-d]pyrimidin-4-one]	35.9 nM	13.9 nM
O=C([C@@H]1CCCC[C@H]1c1ccccc1)N1CCC(O)(Cn2cnc3c(nnn3-c3ccccc3)c2=O)CC1 (relative stereo) [Example 18, 6-[[4-hydroxy-1-(trans-2-phenylcyclohexanecarbonyl)-4-piperidyl]methyl]-3-phenyl-triazolo[4,5-d]pyrimidin-7-one]	50.6 nM	636 nM
O=C([C@@H]1CCCC[C@H]1c1ccccc1)N1CCC(O)(Cn2cnc3c(cnn3-c3ccccc3)c2=O)CC1 (relative stereo) [Example 19, 5-[[4-hydroxy-1-(trans-2-phenylcyclohexanecarbonyl)-4-piperidyl]methyl]-1-phenyl-pyrazolo[3,4-d]pyrimidin-4-one]	14.3 nM	195 nM
O=C([C@@H]1CCCC[C@H]1c1ccccc1)N1CCC(O)(Cn2cnc3c(ncn3-c3ccccc3)c2=O)CC1 (relative stereo) [Example 20, 1-[[4-hydroxy-1-(trans-2-phenylcyclohexanecarbonyl)-4-piperidyl]methyl]-9-phenyl-purin-6-one]	29.3 nM	210 nM
COc1ccc(-n2ccc3c(=O)n(CC4(O)CCN(C(=O)[C@@H]5CCCC[C@H]5c5ccccc5)CC4)cnc32)cc1 (relative stereo) [Example 21, 3-[[4-hydroxy-1-(trans-2-phenylcyclohexanecarbonyl) 4-piperidyl]methyl]-7-(4-methoxyphenyl)pyrrolo[2,3-d]pyrimidin-4-one]	26.9 nM	3.4 nM
O=C([C@@H]1CCCC[C@H]1c1ccccc1)N1CCC(O)(Cn2cnc3c(ccn3-c3ccc(Cl)cc3)c2=O)CC1 (relative stereo) [Example 22, 7-(4-chlorophenyl)-3-[[4-hydroxy-1-(trans-2-phenylcyclohexanecarbonyl)-4-piperidyl]methyl]pyrrolo[2,3-d]pyrimidin-4-one]	31.6 nM	9.88 nM
O=C([C@@H]1CCCC[C@H]1c1ccccc1)N1CCC(O)(Cn2cnc3c(ccn3-c3ccsc3)c2=O)CC1 (relative stereo) [Example 23, 3-[[4-hydroxy-1-(trans-2-phenylcyclohexanecarbonyl)-4-piperidyl]methyl]-7-(3-thienyl)pyrrolo[2,3-d]pyrimidin-4-one]	17.2 nM	70.1 nM
COc1ccc(-n2ccc3c(=O)n(CC4(O)CCN(C(=O)[C@@H]5CCCO[C@H]5c5ccccc5)CC4)cnc32)cc1 (relative stereo) [Example 24, 3-[[4-hydroxy-1-[trans-2-phenyltetrahydropyran-3-carbonyl]-4-piperidyl]methyl]-7-(4-methoxyphenyl)pyrrolo[2,3-d]pyrimidin-4-one]	217 nM	146 nM
O=C([C@@H]1CCCC(F)(F)[C@H]1c1ccccc1)N1CCC(O)(Cn2cnc3c(ccn3-c3ccccc3)c2=O)CC1 (relative stereo) [Example 52, 3-[[1-[trans-3,3-difluoro-2-phenyl-cyclohexanecarbonyl]-4-hydroxy-4-piperidyl]methyl]-7-phenyl-pyrrolo[2,3-d]pyrimidin-4-one]	71.8 nM	100 nM
O=C([C@@H]1CCCC[C@H]1c1ccccc1)N1CCC(O)(Cn2cnc3[nH]ccc3c2=O)CC1 (relative stereo) [Example 92, 3-[[4-hydroxy-1-(trans-2-phenylcyclohexanecarbonyl)-4-piperidyl]methyl]-7H-pyrrolo[2,3-d]pyrimidin-4-one]	124 nM	523 nM
O=C(Cc1ccc2c(c1)NC(=O)C2)Nc1ccc2ncn(CC3(O)CCN(C(=O)[C@@H]4CCCC[C@H]4c4ccccc4)CC3)c(=O)c2n1 (relative stereo) [Example 102, N-[3-[[4-hydroxy-1-(trans-2-phenylcyclohexanecarbonyl)-4-piperidyl]methyl]-4-oxo-pyrido[3,2-d]pyrimidin-6-yl]-2-(2-oxoindolin-6-yl)acetamide]	15.8 nM	5390 nM
COc1ccc(-n2ccc3c(=O)n(CC4(O)CCN(C(=O)[C@@H]5CCCC[C@H]5n5cccc5)CC4)cnc32)cc1 (single isomer, unassigned) [Example 17, 3-[[4-hydroxy-1-[trans-2-pyrrol-1-ylcyclohexanecarbonyl]-4-piperidyl]methyl]-7-(4-methoxyphenyl)pyrrolo[2,3-d]pyrimidin-4-one]	33.5 nM	4.21 nM
CN1C(=O)CC[C@@H](C(=O)N2CCC(O)(Cn3cnc4c(ccn4-c4ccccc4)c3=O)CC2)[C@@H]1c1ccccc1 (single isomer, unassigned) [Example 27, 3-[[4-hydroxy-1-[trans-1-methyl-6-oxo-2-phenyl-piperidine-3-carbonyl]-4-piperidyl]methyl]-7-phenyl-pyrrolo[2,3-d]pyrimidin-4-one]	31.5 nM	46.5 nM
COc1ccc(-n2ccc3c(=O)n(CC4(O)CCN(C(=O)[C@@H]5CC(F)(F)CC[C@H]5c5ccccc5)CC4)cnc32)cc1 (single isomer, unassigned) [Example 30, 3-[[1-[trans-5,5-difluoro-2-phenyl-cyclohexanecarbonyl]-4-hydroxy-4-piperidyl]methyl]-7-(4-methoxyphenyl)pyrrolo[2,3-d]pyrimidin-4-one]	15.9 nM	10.8 nM
O=C([C@@H]1CC(F)(F)CC[C@H]1c1ccccc1)N1CCC(O)(Cn2cnc3c(ccn3-c3ccccc3)c2=O)CC1 (single isomer, unassigned) [Example 32, 3-[[1-[trans-5,5-difluoro-2-phenyl-cyclohexanecarbonyl]-4-hydroxy-4-piperidyl]methyl]-7-phenyl-pyrrolo[2,3-d]pyrimidin-4-one]	35.3 nM	15.8 nM
O=C([C@@H]1CCC(F)(F)C[C@H]1c1ccccc1)N1CCC(O)(Cn2cnc3c(ccn3-c3ccccc3)c2=O)CC1 (single isomer, unassigned) [Example 36, 3-[[1-[trans-4,4-difluoro-2-phenyl-cyclohexanecarbonyl]-4-hydroxy-4-piperidyl]methyl]-7-phenyl-pyrrolo[2,3-d]pyrimidin-4-one]	75.3 nM	126 nM
COc1ccc(-n2ccc3c(=O)n(CC4(O)CCN(C(=O)[C@@H]5CCCC[C@H]5c5ccc(F)cc5)CC4)cnc32)cc1 (single isomer, unassigned) [Example 41, 3-[[1-[trans-2-(4-fluorophenyl)cyclohexanecarbonyl]-4-hydroxy-4-piperidyl]methyl]-7-(4-methoxyphenyl)pyrrolo[2,3-d]pyrimidin-4-one]	13 nM	7.22 nM
O=C([C@@H]1CCCC[C@H]1c1ccc(F)cc1)N1CCC(O)(Cn2cnc3c(ccn3-c3ccccc3)c2=O)CC1 (single isomer, unassigned) [Example 43, 3-[[1-[trans-2-(4-fluorophenyl)cyclohexanecarbonyl]-4-hydroxy-4-piperidyl]methyl]-7-phenyl-pyrrolo[2,3-d]pyrimidin-4-one]	9.81 nM	32.3 nM
